According to US9133157B2, “HIV protease inhibitors” (Merck Canada Inc., priority 2011, dated 2015):

Biological target: WT HIV-1 protease (Human immunodeficiency virus type 1 group M subtype B (isolate HXB2) (HIV-1), UniProt P04585)
Assay: Assay for inhibition of microbial expressed HIV protease (Procedure A, peptide substrate, HPLC fluorescence detection)
Format: biochemical
Details: WT HIV-1 protease 10 pM, substrate 400 micromolar, pH 5.5, 30 min preincubation, 1 hour at 30° C.; read-out: Enzyme inhibition IC50
In short: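 E. coli-expressed enzyme preincubated 30 min at room temperature with compound in 50 mM sodium acetate pH 5.5, 100 mM NaCl, 0.1% BSA. Reaction ran 1 h at 30° C with 400 micromolar Val-Ser-Gln-Asn-(betanaphthyl)Ala-Pro-Ile-Val substrate and 10 picomolar protease. After phosphoric acid quench, product was measured by C18 HPLC with fluorescence (ex 270/em 330 nm).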

| Compound | IC50 |
| --- | --- |
| COC(=O)N[C@H](C(=O)N[C@H](c1ccc([C@@H](CO)N(CCC(C)(C)C)S(=O)(=O)c2ccc(N)cc2F)s1)C(F)(F)F)C(c1ccccc1)c1ccccc1 [Example 98, N-[(1S)-1-{5-[(1R)-1-{[(4-amino-2-fluorophenyl)sulfonyl](3,3-dimethylbutyl)amino}-2-hydroxyethyl]thiophen-2-yl}-2,2,2-trifluoroethyl]-Nα-(methoxycarbonyl)-β-phenyl-L-phenylalaninamide] | 0.44 nM |
| COC(=O)N[C@H](C(=O)N[C@H](c1ccc([C@@H](CO)N(CCC(C)(C)C)S(=O)(=O)c2cn3ccnc3cn2)s1)C(F)(F)F)C(c1ccccc1)c1ccccc1 [Example 99, N-[(1S)-1-(5-{(1R)-1-[(3,3-dimethylbutyl)(imidazo[1,2-a]pyrazin-6-ylsulfonyl)amino]-2-hydroxyethyl}thiophen-2-yl)-2,2,2-trifluoroethyl]-Nα-(methoxycarbonyl)-β-phenyl-L-phenylalaninamide] | 3.39 nM |
| COC(=O)N[C@H](C(=O)N[C@H](c1ccc([C@@H](CO)N(CCC(C)(C)C)S(=O)(=O)c2ccc3ncsc3c2)s1)C(F)(F)F)C(c1ccccc1)c1ccccc1 [Example 100, N-[(1S)-1-(5-{(1R)-1-[(1,3-benzothiazol-6-ylsulfonyl)(3,3-dimethylbutyl)amino]-2-hydroxyethyl}thiophen-2-yl)-2,2,2-trifluoroethyl]-Nα-(methoxycarbonyl)-β-phenyl-L-phenylalaninamide] | 0.9 nM |
| COC(=O)N[C@H](C(=O)N[C@H](c1ccc([C@@H](CO)N(CCC(C)(C)C)S(=O)(=O)c2ccc3nn[nH]c3c2)s1)C(F)(F)F)C(c1ccccc1)c1ccccc1 [Example 101, N-[(1S)-1-(5-{(1R)-1-[(1H-benzotriazol-6-ylsulfonyl)(3,3-dimethylbutyl)amino]-2-hydroxyethyl}thiophen-2-yl)-2,2,2-trifluoroethyl]-Nα-(methoxycarbonyl)-β-phenyl-L-phenylalaninamide] | 0.84 nM |
| COC(=O)N[C@H](C(=O)N[C@H](c1ccc([C@@H](CO)N(CCC(C)(C)C)S(=O)(=O)c2ccc3cn[nH]c3c2)s1)C(F)(F)F)C(c1ccccc1)c1ccccc1 [Example 102, N-[(1S)-1-(5-{(1R)-1-[(3,3-dimethylbutyl)(1H-indazol-6-ylsulfonyl)amino]-2-hydroxyethyl}thiophen-2-yl)-2,2,2-trifluoroethyl]-Nα-(methoxycarbonyl)-β-phenyl-L-phenylalaninamide] | 0.63 nM |
| COC(=O)N[C@H](C(=O)N[C@H](c1ccc([C@@H](CO)N(CCC(C)(C)C)S(=O)(=O)c2ccc3[nH]ccc3c2)s1)C(F)(F)F)C(c1ccccc1)c1ccccc1 [Example 103, N-[(1S)-1-(5-{(1R)-1-[(3,3-dimethylbutyl)(1H-indol-5-ylsulfonyl)amino]-2-hydroxyethyl}thiophen-2-yl)-2,2,2-trifluoroethyl]-Nα-(methoxycarbonyl)-β-phenyl-L-phenylalaninamide] | 6.14 nM |
| COC(=O)N[C@H](C(=O)N[C@H](c1ccc([C@@H](CO)N(CCC(F)(F)F)S(=O)(=O)c2ccc3ncsc3c2)s1)C(F)(F)F)C(c1ccccc1)c1ccccc1 [Example 104, N-[(1S)-1-(5-{(1R)-1-[(1,3-benzothiazol-6-ylsulfonyl)(3,3,3-trifluoropropyl)amino]-2-hydroxyethyl}thiophen-2-yl)-2,2,2-trifluoroethyl]-Nα-(methoxycarbonyl)-β-phenyl-L-phenylalaninamide] | 0.85 nM |
| COC(=O)N[C@H](C(=O)N[C@H](c1ccc([C@@H](CO)N(CCCC(F)(F)F)S(=O)(=O)c2ccc3ncsc3c2)s1)C(F)(F)F)C(c1ccccc1)c1ccccc1 [Example 105, N-[(1S)-1-(5-[(1R)-1-[(1,3-benzothiazol-6-ylsulfonyl)(4,4,4-trifluorobutyl)amino]-2-hydroxyethyl}thiophen-2-yl)-2,2,2-trifluoroethyl]-Nα-(methoxycarbonyl)-β-phenyl-L-phenylalaninamide] | 1.77 nM |
| [2H]C([2H])([2H])C([2H])(N([C@H](CO)c1ccc([C@@H](NC(=O)[C@@H](NC(=O)OC)C(c2ccccc2)c2ccccc2)C(F)(F)F)s1)S(=O)(=O)c1ccc2ncsc2c1)C([2H])([2H])[2H] [Example 106, N-[(1S)-1-{5-[(1R)-1-{(1,3-benzothiazol-6-ylsulfonyl)[(2-^2H)propan-2-yl]amino}-2-hydroxyethyl]thiophen-2-yl}-2,2,2-trifluoroethyl]-Nα-(methoxycarbonyl)-β-phenyl-L-phenylalaninamide] | 34.7 nM |
| [2H]C([2H])([2H])C([2H])(N([C@H](CO)c1ccc([C@@H](NC(=O)[C@@H](NC(=O)OC)C(c2ccccc2)c2ccccc2)C(F)(F)F)s1)S(=O)(=O)c1ccc2[nH]ncc2c1)C([2H])([2H])[2H] [Example 107, Nα-(methoxycarbonyl)-β-phenyl-N-[(1S)-2,2,2-trifluoro-1-{5-[(1R)-2-hydroxy-1-1(1H-indazol-5-ylsulfonyl)[(2-^2H)propan-2-yl]amino}ethyl]thiophen-2-yl}ethyl-L-phenylalaninamide] | 23.4 nM |
| [2H]C([2H])([2H])C([2H])(N([C@H](CO)c1ccc([C@@H](NC(=O)[C@@H](NC(=O)OC)C(c2ccccc2)c2ccccc2)C(F)(F)F)s1)S(=O)(=O)c1ccc(N)cc1F)C([2H])([2H])[2H] [Example 108, N-[(1S)-1-{5-[(1R)-1-{[(4-amino-2-fluorophenyl)sulfonyl][(2-^2H)propan-2-yl]amino}-2-hydroxyethyl]thiophen-2-yl}-2,2,2-trifluoroethyl]-Nα-(methoxycarbonyl)-β-phenyl-L-phenylalaninamide] | 9.4 nM |
| COC(=O)N[C@H](C(=O)N[C@H](c1ccc([C@@H](CO)N(C(C)C)S(=O)(=O)c2ccc(C(N)=O)cc2)s1)C(F)(F)F)C(c1ccccc1)c1ccccc1 [Example 109, methyl [(1S)-2-{[(1)-1-(5-{(1R)-1-[{[4-(aminocarbonyl)phenyl]sulfonyl}(isopropyl)amino]-2-hydroxyethyl}-2-thienyl)-2,2,2-trifluoroethyl]amino}-1-(diphenylmethyl)-2-oxoethyl]carbamate] | 31.5 nM |
| COC(=O)N[C@H](C(=O)N[C@H](c1ccc([C@@H](CO)N(CCC(C)(C)C)S(=O)(=O)c2ccc(-n3ncnn3)cc2)s1)C(F)(F)F)C(c1ccccc1)c1ccccc1 [Example 110] | 10.5 nM |
| COC(=O)N[C@H](C(=O)N[C@H](c1ccc([C@@H](CO)N(CCC(C)(C)C)S(=O)(=O)c2ccc(-n3cnnn3)cc2)s1)C(F)(F)F)C(c1ccccc1)c1ccccc1 [Example 111, N-((1S)-1-{5-[(1R)-1-((3,3-dimethylbutyl){[4-(1H-tetrazol-1-yl)phenyl]sulfonyl}amino)-2-hydroxyethyl]-2-thienyl}-2,2,2-trifluoroethyl)-Nα-(methoxycarbonyl)-β-phenyl-L-phenylalaninamide] | 19.3 nM |
| COC(=O)N[C@H](C(=O)N[C@H](c1ccc([C@@H](CO)N(CCC(C)(C)C)S(=O)(=O)c2ccc(-n3nccn3)cc2)s1)C(F)(F)F)C(c1ccccc1)c1ccccc1 [Example 112] | 73.5 nM |
| COC(=O)N[C@H](C(=O)N[C@H](c1ccc([C@@H](CO)N(CCC(C)(C)C)S(=O)(=O)c2ccc(-n3ccnn3)cc2)s1)C(F)(F)F)C(c1ccccc1)c1ccccc1 [Example 113] | 25.9 nM |
| COC(=O)N[C@H](C(=O)N[C@H](c1ccc([C@@H](CO)N(CCC(C)(C)C)S(=O)(=O)c2ccc(-c3ccno3)cc2)s1)C(F)(F)F)C(c1ccccc1)c1ccccc1 [Example 114, N-{(1S)-1-[5-((1R)-1-{(3,3-dimethylbutyl)[(4-isoxazol-5-ylphenyl)sulfonyl]amino}-2-hydroxyethyl)-2-thienyl]-2,2,2-trifluoroethyl}-Nα-(methoxycarbonyl)-β-phenyl-L-phenylalaninamide] | 0.77 nM |
| COC(=O)N[C@H](C(=O)N[C@H](c1ccc([C@@H](CO)N(CCC(C)(C)C)S(=O)(=O)c2ccc(N)c(Cl)c2)s1)C(F)(F)F)C(c1ccccc1)c1ccccc1 [Example 116, N-[(1S)-1-(5-{(1R)-1-[[(4-amino-3-chlorophenyl)sulfonyl](3,3-dimethylbutyl)amino]-2-hydroxyethyl}-2-thienyl)-2,2,2-trifluoroethyl]-Nα-(methoxycarbonyl)-β-phenyl-L-phenylalaninamide] | 3.54 nM |
| COC(=O)N[C@H](C(=O)N[C@H](c1ccc([C@@H](CO)N(CCC(C)(C)C)S(=O)(=O)c2ccc(N)cc2Cl)s1)C(F)(F)F)C(c1ccccc1)c1ccccc1 [Example 117, N-[(1S)-1-(5-{(1R)-1-[[(4-amino-2-chlorophenyl)sulfonyl](3,3-dimethylbutyl)amino]-2-hydroxyethyl}-2-thienyl)-2,2,2-trifluoroethyl]-Nα-(methoxycarbonyl)-β-phenyl-L-phenylalaninamide] | 0.47 nM |
| COC(=O)N[C@H](C(=O)N[C@H](c1ccc([C@@H](CO)N(CCC(C)(C)C)S(=O)(=O)c2ccc3ncnn3c2)s1)C(F)(F)F)C(c1ccccc1)c1ccccc1 [Example 118, N-[(1S)-1-(5-{(1R)-1-[(3,3-dimethylbutyl)([1,2,4]triazolo[1,5-a]pyridin-6-ylsulfonyl)amino]-2-hydroxyethyl}thiophen-2-yl)-2,2,2-trifluoroethyl]-Nalpha-(methoxycarbonyl)-beta-phenyl-L-phenylalaninamide] | 2.43 nM |
| COC(=O)N[C@H](C(=O)N[C@H](c1ccc([C@@H](CO)N(CCC(C)(C)C)S(=O)(=O)c2cn3cc(Cl)nc3cn2)s1)C(F)(F)F)C(c1ccccc1)c1ccccc1 [Example 119, N-[(1S)-1-{5-[(1R)-1-{[(2-chloroimidazo[1,2-a]pyrazin-6-yl)sulfonyl](3,3-dimethylbutyl)amino}-2-hydroxyethyl]thiophen-2-yl}-2,2,2-trifluoroethyl]-Nα-(methoxycarbonyl)-β-phenyl-L-phenylalaninamide] | 13.9 nM |
